The NIST ThermoML archive (doi:10.1016/j.jct.2003.11.008)

Experiments:
[1] = xn = mol fraction of the nth substance listed; details: 318.15 K, 101.3 kPa, Liquid
[2] = excess molar enthalpy (molar enthalpy of mixing); xn = mol fraction of the nth substance listed; details: 318.15 K, 101.3 kPa, Liquid

CCCCCCCCCCCCCCCCC [heptadecane] + CCCOC(C)=O
Details | excess molar enthalpy [kJ/mol] | excess molar volume [m3/mol]
[1], x2 = 0.2332 | – | 8.02e-07
[1], x2 = 0.3167 | – | 1.017e-06
[1], x2 = 0.4087 | – | 1.166e-06
[1], x2 = 0.4759 | – | 1.235e-06
[1], x2 = 0.5393 | – | 1.28e-06
[1], x2 = 0.5977 | – | 1.276e-06
[1], x2 = 0.6463 | – | 1.246e-06
[1], x2 = 0.6916 | – | 1.225e-06
[1], x2 = 0.7628 | – | 1.103e-06
[1], x2 = 0.8202 | – | 9.42e-07
[1], x2 = 0.891 | – | 6.77e-07
[1], x2 = 0.9375 | – | 4.38e-07
[1], x2 = 0.9705 | – | 2.25e-07
[2], x2 = 0.0838 | 0.481 | –
[2], x2 = 0.1596 | 0.871 | –
[2], x2 = 0.2462 | 1.26 | –
[2], x2 = 0.3255 | 1.55 | –
[2], x2 = 0.3884 | 1.7 | –
[2], x2 = 0.4477 | 1.82 | –
[2], x2 = 0.4925 | 1.87 | –
[2], x2 = 0.5313 | 1.89 | –
[2], x2 = 0.5702 | 1.89 | –
[2], x2 = 0.6288 | 1.83 | –
[2], x2 = 0.6644 | 1.77 | –
[2], x2 = 0.7023 | 1.69 | –
[2], x2 = 0.7423 | 1.59 | –
[2], x2 = 0.7826 | 1.45 | –
[2], x2 = 0.8239 | 1.29 | –
[2], x2 = 0.8654 | 1.1 | –
[2], x2 = 0.9064 | 0.849 | –
[2], x2 = 0.9452 | 0.579 | –
[2], x2 = 0.9772 | 0.278 | –

CCCCCCCCCCCCCCCCC [heptadecane] + CCOC(C)=O
Details | excess molar enthalpy [kJ/mol] | excess molar volume [m3/mol]
[1], x2 = 0.1461 | – | 6.4e-07
[1], x2 = 0.2562 | – | 1.04e-06
[1], x2 = 0.3512 | – | 1.284e-06
[1], x2 = 0.4324 | – | 1.449e-06
[1], x2 = 0.5057 | – | 1.538e-06
[1], x2 = 0.5143 | – | 1.548e-06
[1], x2 = 0.5756 | – | 1.565e-06
[1], x2 = 0.5814 | – | 1.562e-06
[1], x2 = 0.6778 | – | 1.503e-06
[1], x2 = 0.7269 | – | 1.41e-06
[1], x2 = 0.7898 | – | 1.273e-06
[1], x2 = 0.8421 | – | 1.081e-06
[1], x2 = 0.903 | – | 7.83e-07
[1], x2 = 0.9457 | – | 5.1e-07
[1], x2 = 0.9685 | – | 3.18e-07
[2], x2 = 0.0911 | 0.569 | –
[2], x2 = 0.1754 | 1.03 | –
[2], x2 = 0.2543 | 1.44 | –
[2], x2 = 0.3274 | 1.73 | –
[2], x2 = 0.394 | 1.95 | –
[2], x2 = 0.4566 | 2.12 | –
[2], x2 = 0.512 | 2.2 | –
[2], x2 = 0.558 | 2.23 | –
[2], x2 = 0.6007 | 2.22 | –
[2], x2 = 0.634 | 2.19 | –
[2], x2 = 0.6486 | 2.17 | –
[2], x2 = 0.6818 | 2.11 | –
[2], x2 = 0.7172 | 2.03 | –
[2], x2 = 0.7538 | 1.94 | –
[2], x2 = 0.7913 | 1.78 | –
[2], x2 = 0.8271 | 1.64 | –
[2], x2 = 0.8653 | 1.43 | –
[2], x2 = 0.9018 | 1.2 | –
[2], x2 = 0.9382 | 0.921 | –
[2], x2 = 0.9719 | 0.507 | –

CCCCCCCCCCCCCCCCC [heptadecane] + COC(C)=O
Details | excess molar enthalpy [kJ/mol] | excess molar volume [m3/mol]
[1], x2 = 0.0872 | – | 4.73e-07
[1], x2 = 0.1719 | – | 9e-07
[1], x2 = 0.2901 | – | 1.422e-06
[1], x2 = 0.3832 | – | 1.742e-06
[1], x2 = 0.4682 | – | 1.916e-06
[1], x2 = 0.5391 | – | 1.999e-06
[1], x2 = 0.5988 | – | 2.022e-06
[1], x2 = 0.6524 | – | 1.981e-06
[1], x2 = 0.694 | – | 1.916e-06
[1], x2 = 0.7348 | – | 1.806e-06
[1], x2 = 0.7632 | – | 1.698e-06
[1], x2 = 0.8016 | – | 1.579e-06
[1], x2 = 0.827 | – | 1.455e-06
[1], x2 = 0.8469 | – | 1.363e-06
[1], x2 = 0.8704 | – | 1.246e-06
[1], x2 = 0.9208 | – | 9.07e-07
[1], x2 = 0.9545 | – | 5.89e-07
[1], x2 = 0.9807 | – | 2.74e-07
[2], x2 = 0.113 | 0.735 | –
[2], x2 = 0.2193 | 1.37 | –
[2], x2 = 0.3028 | 1.82 | –
[2], x2 = 0.3894 | 2.18 | –
[2], x2 = 0.4626 | 2.41 | –
[2], x2 = 0.5247 | 2.54 | –
[2], x2 = 0.5794 | 2.57 | –
[2], x2 = 0.6278 | 2.54 | –
[2], x2 = 0.6655 | 2.48 | –
[2], x2 = 0.6858 | 2.43 | –
[2], x2 = 0.7195 | 2.34 | –
[2], x2 = 0.7539 | 2.21 | –
[2], x2 = 0.7883 | 2.05 | –
[2], x2 = 0.8246 | 1.86 | –
[2], x2 = 0.861 | 1.67 | –
[2], x2 = 0.8938 | 1.45 | –
[2], x2 = 0.9264 | 1.21 | –
[2], x2 = 0.9502 | 0.986 | –
[2], x2 = 0.9763 | 0.606 | –

COC(C)=O [methyl ethanoate] + CCCCCCC
Details | excess molar enthalpy [kJ/mol] | excess molar volume [m3/mol]
[1], x1 = 0.096 | – | 6.73e-07
[1], x1 = 0.1583 | – | 9.83e-07
[1], x1 = 0.2293 | – | 1.293e-06
[1], x1 = 0.2947 | – | 1.495e-06
[1], x1 = 0.3534 | – | 1.597e-06
[1], x1 = 0.408 | – | 1.665e-06
[1], x1 = 0.4619 | – | 1.705e-06
[1], x1 = 0.5159 | – | 1.699e-06
[1], x1 = 0.5572 | – | 1.659e-06
[1], x1 = 0.6064 | – | 1.605e-06
[1], x1 = 0.6501 | – | 1.535e-06
[1], x1 = 0.6915 | – | 1.451e-06
[1], x1 = 0.7275 | – | 1.345e-06
[1], x1 = 0.7645 | – | 1.228e-06
[1], x1 = 0.8471 | – | 8.83e-07
[1], x1 = 0.9111 | – | 5.53e-07
[1], x1 = 0.9577 | – | 2.83e-07
[2], x1 = 0.0778 | 0.571 | –
[2], x1 = 0.1534 | 1.02 | –
[2], x1 = 0.2251 | 1.39 | –
[2], x1 = 0.2785 | 1.58 | –
[2], x1 = 0.3445 | 1.78 | –
[2], x1 = 0.4038 | 1.89 | –
[2], x1 = 0.4555 | 1.93 | –
[2], x1 = 0.5034 | 1.95 | –
[2], x1 = 0.5451 | 1.93 | –
[2], x1 = 0.5759 | 1.91 | –
[2], x1 = 0.6498 | 1.79 | –
[2], x1 = 0.6832 | 1.74 | –
[2], x1 = 0.7322 | 1.63 | –
[2], x1 = 0.7698 | 1.49 | –
[2], x1 = 0.8184 | 1.31 | –
[2], x1 = 0.873 | 1.05 | –
[2], x1 = 0.9036 | 0.79 | –
[2], x1 = 0.9534 | 0.45 | –

CCCCCCCCC [nonane] + CCOC(C)=O
Details | excess molar enthalpy [kJ/mol] | excess molar volume [m3/mol]
[1], x2 = 0.0916 | – | 4.94e-07
[1], x2 = 0.1769 | – | 8.53e-07
[1], x2 = 0.2442 | – | 1.049e-06
[1], x2 = 0.3108 | – | 1.228e-06
[1], x2 = 0.3462 | – | 1.289e-06
[1], x2 = 0.4363 | – | 1.418e-06
[1], x2 = 0.4938 | – | 1.446e-06
[1], x2 = 0.5469 | – | 1.447e-06
[1], x2 = 0.5934 | – | 1.426e-06
[1], x2 = 0.6418 | – | 1.361e-06
[1], x2 = 0.6869 | – | 1.292e-06
[1], x2 = 0.7308 | – | 1.202e-06
[1], x2 = 0.7614 | – | 1.142e-06
[1], x2 = 0.8417 | – | 8.49e-07
[1], x2 = 0.9044 | – | 5.78e-07
[1], x2 = 0.9558 | – | 2.94e-07
[2], x2 = 0.0596 | 0.364 | –
[2], x2 = 0.131 | 0.718 | –
[2], x2 = 0.2117 | 1.06 | –
[2], x2 = 0.295 | 1.32 | –
[2], x2 = 0.3664 | 1.51 | –
[2], x2 = 0.436 | 1.65 | –
[2], x2 = 0.4899 | 1.7 | –
[2], x2 = 0.5447 | 1.71 | –
[2], x2 = 0.5881 | 1.67 | –
[2], x2 = 0.6166 | 1.63 | –
[2], x2 = 0.629 | 1.6 | –
[2], x2 = 0.6629 | 1.56 | –
[2], x2 = 0.7061 | 1.45 | –
[2], x2 = 0.752 | 1.34 | –
[2], x2 = 0.7991 | 1.16 | –
[2], x2 = 0.8421 | 0.984 | –
[2], x2 = 0.8875 | 0.742 | –
[2], x2 = 0.9312 | 0.492 | –
[2], x2 = 0.9672 | 0.247 | –
